The test has as its target Aiolos (Homo sapiens, UniProt Q96SW2+Q9UKT9). Nature of the test: Degradation of Aiolos in primary NK cells (intracellular staining, flow cytometry). It counts as cell-based. Further details: endogenous in cells; host or cells: primary human NK cells gated from healthy-donor PBMCs. Particulars: PBMCs from healthy donors (n=7), dose titrations, 5 hours. The procedure:
Intracellular staining of Aiolos and Ikaros in primary human NK cells was performed by flow cytometry gating on live, CD3-CD4-CD8-CD56+CD16+NK cell populations.

Aiolos, sequence (Q9UKT9 whole entry): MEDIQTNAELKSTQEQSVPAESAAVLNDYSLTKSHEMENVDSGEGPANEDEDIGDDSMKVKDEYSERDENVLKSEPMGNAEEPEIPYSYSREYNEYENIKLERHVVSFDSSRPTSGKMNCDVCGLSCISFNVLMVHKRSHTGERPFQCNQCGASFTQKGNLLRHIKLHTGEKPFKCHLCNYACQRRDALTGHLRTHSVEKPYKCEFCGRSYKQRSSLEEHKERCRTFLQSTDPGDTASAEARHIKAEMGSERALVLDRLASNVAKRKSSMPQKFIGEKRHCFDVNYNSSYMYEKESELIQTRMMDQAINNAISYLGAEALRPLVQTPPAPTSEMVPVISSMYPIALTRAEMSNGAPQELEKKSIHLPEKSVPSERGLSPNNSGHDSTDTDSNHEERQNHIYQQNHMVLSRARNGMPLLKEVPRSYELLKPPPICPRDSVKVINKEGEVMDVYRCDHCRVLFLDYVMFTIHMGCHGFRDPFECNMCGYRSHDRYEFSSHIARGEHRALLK
Aiolos, sequence (Q96SW2 whole entry): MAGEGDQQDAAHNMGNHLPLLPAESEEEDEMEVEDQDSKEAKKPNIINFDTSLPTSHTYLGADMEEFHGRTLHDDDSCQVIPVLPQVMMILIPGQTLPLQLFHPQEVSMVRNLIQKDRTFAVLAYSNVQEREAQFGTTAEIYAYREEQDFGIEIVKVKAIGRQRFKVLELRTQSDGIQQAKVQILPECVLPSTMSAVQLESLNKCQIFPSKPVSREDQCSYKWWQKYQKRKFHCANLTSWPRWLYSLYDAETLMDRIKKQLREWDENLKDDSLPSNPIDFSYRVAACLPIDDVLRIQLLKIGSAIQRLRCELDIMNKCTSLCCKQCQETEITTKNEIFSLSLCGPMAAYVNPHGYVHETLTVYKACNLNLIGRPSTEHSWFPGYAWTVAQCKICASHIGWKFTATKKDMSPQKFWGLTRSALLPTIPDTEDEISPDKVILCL
Aiolos, sequence (Q16531 whole entry partner): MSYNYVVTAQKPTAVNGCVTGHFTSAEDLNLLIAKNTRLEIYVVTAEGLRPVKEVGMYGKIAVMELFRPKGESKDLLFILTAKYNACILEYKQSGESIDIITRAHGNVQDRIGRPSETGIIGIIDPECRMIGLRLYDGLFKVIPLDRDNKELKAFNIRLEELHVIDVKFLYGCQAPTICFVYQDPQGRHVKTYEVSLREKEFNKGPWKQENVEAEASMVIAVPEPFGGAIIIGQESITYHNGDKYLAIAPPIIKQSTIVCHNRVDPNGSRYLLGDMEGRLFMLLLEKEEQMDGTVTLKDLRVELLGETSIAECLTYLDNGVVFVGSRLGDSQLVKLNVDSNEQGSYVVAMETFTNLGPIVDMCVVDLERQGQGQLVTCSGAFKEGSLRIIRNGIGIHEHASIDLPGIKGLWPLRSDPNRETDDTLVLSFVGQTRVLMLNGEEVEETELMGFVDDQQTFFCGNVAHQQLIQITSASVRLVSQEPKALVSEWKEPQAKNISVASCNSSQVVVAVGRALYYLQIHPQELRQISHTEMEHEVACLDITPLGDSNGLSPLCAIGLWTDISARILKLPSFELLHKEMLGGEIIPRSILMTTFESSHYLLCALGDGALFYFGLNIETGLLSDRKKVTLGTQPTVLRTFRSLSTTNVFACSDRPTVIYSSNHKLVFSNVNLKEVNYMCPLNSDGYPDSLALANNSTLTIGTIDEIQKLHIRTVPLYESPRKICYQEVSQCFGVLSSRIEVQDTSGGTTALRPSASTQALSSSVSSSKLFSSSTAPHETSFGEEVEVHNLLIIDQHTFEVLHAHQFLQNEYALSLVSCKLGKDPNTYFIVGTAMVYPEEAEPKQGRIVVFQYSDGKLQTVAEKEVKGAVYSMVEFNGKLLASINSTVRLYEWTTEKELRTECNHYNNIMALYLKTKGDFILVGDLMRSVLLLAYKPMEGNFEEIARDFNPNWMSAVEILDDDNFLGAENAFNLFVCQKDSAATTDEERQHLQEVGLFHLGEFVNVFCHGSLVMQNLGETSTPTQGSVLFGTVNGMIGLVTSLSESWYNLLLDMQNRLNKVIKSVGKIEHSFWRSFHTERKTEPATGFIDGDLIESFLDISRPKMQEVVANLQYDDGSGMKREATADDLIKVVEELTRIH

As for `O=C1CC[C@H](N2Cc3c(OCc4ccc(CN5CCOCC5)cc4)cccc3C2=O)C(=O)N1` [CC-220, (S)-3-(4-((4-(Morpholinomethyl)benzyl)oxy)-1-oxoisoindolin-2-yl)piperidine-2,6-dione], the “degradation of Aiolos in primary NK cells” value is listed as “mediates degradation”.

These data come from patent US20230364230A1, “COMBINATION THERAPY FOR CANCER” (ENGMAB SÀRL, priority 2020, published 2023).
